# Measured values: the supplement of paper PMC10307832
# What was measured:
# Assay in all cases: relative viability (nuclei count vs DMSO), 5 days (fraction); higher = more cells survive
# Quizartinib + Pemetrexed = compound: CC(C)(C)c1cc(NC(=O)Nc2ccc(-c3cn4c(n3)sc3cc(OCCN5CCOCC5)ccc34)cc2)no1 [Quizartinib] + Nc1nc2[nH]cc(CCc3ccc(C(=O)N[C@@H](CCC(=O)O)C(=O)O)cc3)c2c(=O)[nH]1 [Pemetrexed] (partner 0.2 µM)
# Summary of the method: (§1)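 Lung cancer cell lines, seeded in 1536-well plates, were treated the following day by pin tool with a single drug or with five library-drug doses (not always all listed) in √10 steps on top of a fixed anchor-drug dose. Cells were fixed and nuclei stained in one step after 5 days, and nuclei were counted. Relative viability is the nuclei count for treated wells divided by that for vehicle wells, reported as medians of duplicate plates.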
# YM155 + OSI-027 = compound: COCC[n+]1c2c(n(Cc3cnccn3)c1C)C(=O)c1ccccc1C2=O [YM155] + COc1cccc2cc(-c3nc([C@H]4CC[C@H](C(=O)O)CC4)n4ncnc(N)c34)[nH]c12 [OSI-027] (partner 0.5 µM)
# Summary of the method: as §1
# YM155 + Decitabine = compound: COCC[n+]1c2c(n(Cc3cnccn3)c1C)C(=O)c1ccccc1C2=O [YM155] + Nc1ncn([C@H]2C[C@H](O)[C@@H](CO)O2)c(=O)n1 [Decitabine] (partner 2 µM)
# Summary of the method: as §1
# YM155 + Olaparib = compound: COCC[n+]1c2c(n(Cc3cnccn3)c1C)C(=O)c1ccccc1C2=O [YM155] + O=C(c1cc(Cc2n[nH]c(=O)c3ccccc23)ccc1F)N1CCN(C(=O)C2CC2)CC1 [Olaparib] (partner 8 µM)
# Summary of the method: as §1
Cell Line,relative viability (Quizartinib + Pemetrexed; first compound 0.001 µM),relative viability (Quizartinib + Pemetrexed; first compound 0.003162 µM),relative viability (Quizartinib + Pemetrexed; first compound 0.01 µM),relative viability (Quizartinib + Pemetrexed; first compound 0.03162 µM),relative viability (Quizartinib + Pemetrexed; first compound 0.1 µM),relative viability (YM155 + OSI-027; first compound 0.002 µM),relative viability (YM155 + OSI-027; first compound 0.006325 µM),relative viability (YM155 + OSI-027; first compound 0.02 µM),relative viability (YM155 + OSI-027; first compound 0.06325 µM),relative viability (YM155 + Decitabine; first compound 0.002 µM),relative viability (YM155 + Decitabine; first compound 0.006325 µM),relative viability (YM155 + Decitabine; first compound 0.02 µM),relative viability (YM155 + Decitabine; first compound 0.06325 µM),relative viability (YM155 + Olaparib; first compound 0.002 µM),relative viability (YM155 + Olaparib; first compound 0.006325 µM),relative viability (YM155 + Olaparib; first compound 0.02 µM),relative viability (YM155 + Olaparib; first compound 0.06325 µM)
NCI-H596,0.511,0.475,0.498,0.476,0.459,0.735,0.806,0.743,0.85,0.886,1,1.02,1.04,0.719,0.669,0.697,0.622
NCI-H647,0.141,0.125,0.221,0.182,0.19,0.812,0.736,0.762,0.483,0.482,0.405,0.288,0.272,0.506,0.64,0.516,0.295
NCI-H650,0.902,0.945,0.9,0.912,1.09,0.503,0.542,0.572,0.52,0.329,0.3,0.282,0.293,0.429,0.345,0.409,0.377
NCI-H661,0.868,0.887,0.926,0.898,0.89,0.703,0.722,0.708,0.308,0.516,0.516,0.533,0.47,0.727,0.686,0.739,0.41
NCI-H838,0.244,0.231,0.268,0.257,0.236,0.361,0.406,0.421,0.438,0.423,0.471,0.399,0.383,0.711,0.787,0.761,0.416
NCI-H1355,0.972,1.03,0.92,1.09,0.935,0.386,0.394,0.454,0.47,0.312,0.374,0.383,0.357,0.751,0.731,0.8,0.725
NCI-H1395,0.802,0.927,0.717,0.74,1,0.579,0.665,0.684,0.705,0.715,0.689,0.736,0.776,0.489,0.457,0.46,0.456
NCI-H1437,0.314,0.302,0.305,0.335,0.32,0.838,0.844,0.871,0.783,0.557,0.539,0.567,0.472,0.618,0.596,0.599,0.387
NCI-H1650,0.342,0.398,0.441,,0.381,0.677,0.783,0.594,0.613,0.382,0.384,0.452,0.203,0.781,0.699,0.491,0.194
NCI-H1651,0.524,0.594,0.665,0.596,0.59,0.685,0.774,0.88,0.585,0.667,0.613,0.627,0.586,0.189,0.19,0.206,0.173
NCI-H1666,0.772,0.822,0.85,0.827,0.914,0.767,0.911,0.859,0.841,0.749,0.671,0.78,0.726,0.754,0.741,0.769,0.679
NCI-H1734,0.375,0.412,0.407,0.457,0.412,0.599,0.586,0.616,0.684,0.474,0.525,0.468,0.446,0.53,0.607,0.656,0.63
NCI-H1755,0.316,0.399,0.412,0.464,0.378,0.716,0.753,0.747,0.705,0.697,0.711,0.723,0.784,0.848,0.853,0.855,0.913
NCI-H1792,0.624,0.79,0.913,0.69,0.713,0.743,0.889,0.677,0.83,0.453,0.514,0.6,0.566,0.382,0.253,0.502,0.454
NCI-H1793,0.806,1.03,0.841,0.854,0.929,0.242,0.308,0.259,0.269,0.988,0.485,0.61,0.497,0.847,0.824,0.91,0.575
NCI-H1915,0.49,0.47,0.552,0.477,0.488,0.585,0.593,0.613,0.574,0.277,0.256,0.264,0.267,0.26,0.259,0.278,0.254
NCI-H1944,0.55,0.575,0.601,0.654,0.583,0.364,0.381,0.445,0.485,0.416,0.395,0.415,0.453,0.401,0.364,0.404,0.406
NCI-H1975,0.283,0.306,0.316,0.295,0.294,0.596,0.742,0.67,0.541,0.344,0.338,0.423,0.353,0.717,0.756,0.767,0.189
NCI-H1993,0.55,0.566,0.567,0.67,0.59,0.563,0.569,0.583,0.522,0.607,0.644,0.597,0.439,0.765,1.01,0.79,0.465
